Test results as given in patent US8431166B2, “Composition comprising the extract of Anemarrhena asphodeloides Bunge or the compounds isolated from the same for preventing and treating lipid metabolism disorder” (EWHA University-Industry Collaboration Foundation, priority 2009, dated 2013).
Read-outs that look alike come from different tables or passages of the source.

Tested on: Pre-adipocytes and 3T3-L1 cell
Experiment: Inhibitory effect on adipocyte differentiation (Oil-red O staining)
Type: cell-based
Details: 3T3-L1, Oil-red O staining; for IC50: day 7, IC50 determined using BioDataFit 1.02, read-out: Inhibitory Activities of Isolated Compound on Adipocyte Differentiation(IC50)
Description: Oil-red O was dissolved in 100% isopropanol, and stirred for about 16 hrs to prepare a 0.3% Oil-red O staining solution. Distilled water was added to the solution at a ratio of 0.3% Oil-red O:distilled water=6:4 (v/v), and mixed with each other. The solution was filtered using 3M paper once, and filtered again using a 0.2 μm syringe filter.
Pre-adipocytes and 3T3-L1 cell (American Tissue Culture. Collection, ATCC) were maintained in DMEM (Dulbecco's Modified Eagle Medium, Gibco-BRL, Grand Island, N.Y., USA) supplemented with 10% bovine calf serum. 4×10^4 of cells were suspended in 0.5 ml and seeded in each well of 24-well plate. The cells were grown to confluence for 48 hrs in the same medium and the medium was replaced with DMEM containing insulin (5 μg/mL), 10 μM rosiglitazone, 1 μM dexamethasone, and 10% fetal bovine serum (FBS) to differentiate adipocytes. […] As a control group, the cells were treated with Resveratrol (Sigma-Aldrich, 3,4′,5-Trihydroxy-trans-stilbene, 5-[(1E)-2-(4-Hydroxyphenyl)ethenyl]-1,3-benzenediol), which is known to inhibit the adipocyte differentiation and prevent diabetes, dissolved in DMSO at the same concentration. The cells were then replaced with 10% FBS/DMEM supplemented with 5 μg/mL insulin after 48 hrs, and also re-treated with each compound. After 48 hrs, the medium was replaced with fresh 10% FBS/DMEM. Day 7 after induction of adipocyte differentiation, the differentiated adipocytes were examined by Oil-red O staining. After removing the culture medium, the cells were gently washed with PBS once, and fixed in 10% formalin at room temperature for 1 hr. […] To wash off the staining solution, the cells were washed with distilled water, and dried (uncapped). After image scanning, the stained cells were treated with 100% isopropanol for 10 min to wash out the staining solution. The absorbance at 500 nm was measured to compare the Oil-red O staining between the compound-treated groups and the control group.

`COc1ccc(CCCc2ccc(O)cc2)c(O)c1` [Broussonin A] was tested, and the “inhibitory effects on adipocyte differentiation (in words)” value was “showed inhibitory effects on adipocyte differentiation”.

`Cc1c(O)cc2c(c1O)C(=O)/C(=C/c1ccc(O)cc1)CO2` [Compound 1, (E)-5,7-Dihydroxy-3-(4′-hydroxybenzylidene)-6-methylchroman-4-one] gave an IC50 (Mus musculus, 168 h) of 336 µM.

For `O=C(C#Cc1ccc(O)cc1)c1ccc(O)cc1` [Compound 3, 1,3-bis(4-hydroxyphenyl)prop-2-yn-1-one], the “inhibitory effects on adipocyte differentiation (in words)” value was “excellent inhibitory effects on adipocyte differentiation even at lower concentration than the control group Resveratrol” and the IC50 (Mus musculus, 168 h) was 5.3 µM.

For `C=C[C@H](/C=C\c1ccc(O)cc1)c1ccc(O)cc1` [Compound 5, (−)-Nyasol], the IC50 (Mus musculus, 168 h) was 108 µM.

`C=CC(CC(=O)c1ccc(O)cc1)c1ccc(O)cc1` (stereo not drawn) [Compound 7, 1,3-bis-di-p-hydroxyphenyl-4-penten-1-one] showed an IC50 of 326 µM.

`O=C(/C=C/c1ccc(O)cc1)c1ccc(O)cc1O` [Compound 8, 2′,4′,4-Trihydroxychalcone] was tested, and the “inhibitory effects on adipocyte differentiation (in words)” value was “showed inhibitory effects on adipocyte differentiation” and the IC50 (Mus musculus, 168 h) was 96.4 µM.

`Oc1ccc(CC2COc3cc(O)ccc3C2)cc1` (stereo not drawn) [Compound 9, 7,4′-Dihydroxyhomoisoflavane] showed an IC50 of over 500 µM.

For `COc1cc(O)ccc1C(=O)/C=C/c1ccc(O)cc1` [Compound 10, 2′-O-Methylisoliquiritigenin], the “inhibitory effects on adipocyte differentiation (in words)” value was “showed inhibitory effects on adipocyte differentiation” and the IC50 was 41.8 µM.

In the case of `COc1cc(O)cc2c1C(=O)CC(c1ccc(O)cc1)O2` (stereo not drawn) [Compound 12, 4′,7-Dihydroxy-5-methoxyflavanone], the IC50 (Mus musculus, 168 h) is reported as 260 µM.

`COc1cc(O)cc(O)c1C(=O)CCc1ccc(O)cc1` [Compound 13, 2′-O-methylphloretin] gave an IC50 of over 500 µM.

`O=C(/C=C/c1ccc(O)cc1)c1ccc(O)cc1` [Compound 14, 4,4′-Dihydroxychalcon] was tested, and the IC50 (Mus musculus, 168 h) was over 500 µM.

Compound `Oc1ccc(/C=C/c2cc(O)cc(O)c2)cc1` [Resveratrol, 3,4′,5-Trihydroxy-trans-stilbene, reference compound] has an IC50 (Mus musculus, 168 h) of 31.4 µM.

With (−)-4′-O-Methylnyasol [Compound 4] the “inhibitory effects on adipocyte differentiation (in words)” value was “showed inhibitory effects on adipocyte differentiation” and the IC50 was 45.9 µM.

For Broussonin A [Compound 6], the IC50 was 74.5 µM.
